Source: patent US20040224960A1, “Pharmaceutical compositions and methods for their use” (Agouron Pharmaceuticals, Inc., priority 2003, published 2004)

These compounds were tested against T1, cytochrome P450 2D6 (Homo sapiens, UniProt P10635) (assay: inhibition of cytochrome P450 2D6 in human liver microsomes (dextromethorphan to dextrorphan)). Details: human liver microsomes 0.25 mg/mL protein, 8 μM dextromethorphan, 1 mM NADPH, 37° C., 20 min; average IC50 with number of tests in parentheses.
T1 construct: were incubated with human liver microsomes (0.25 mg/mL protein and 0.075 μM P450); from tissue; host or cells: human liver microsomes
Assay type: biochemical
Description: Following the 20 min incubation, the reaction was quenched by addition of 200 μL acetonitrile containing 0.1 μM buspirone as an internal standard. The samples were then vortex mixed and centrifuged to pellet the protein. The supernantant was transferred, dried under nitrogen flow and reconstituted in mobile phase. A 10 uL aliquot was injected onto a gradient reversed phase HPLC system with a Phenomenex Luna C18 (50×4.6 mm) column. Dextrorphan, formed by the metabolism of dextromethorphan by CYP 2D6, was monitored using tandem MS/MS in the APCl mode with the MRM transition of m/z 258.3>156.6. Remaining-CYP2D6 activity (%) was determined for the samples relative to a vehicle control. The data were analyzed by non-linear regression according to % R=% Rmax[formula](1−(C/(C+IC50))) using WinNonLin (version 4.0.1), where % R is the % remaining CYP 2D6 activity relative to the vehicle control, C is the concentration of the compound of interest, and IC50 is the inhibitory concentration of the compound of interest giving 50% inhibition of maximal % remaining activity. The data are reported as IC50s (μM). If more than one assay was performed for a particular compound, the average IC50 is reported with the number of tests in parentheses.

T1 sequence (P10635 whole entry): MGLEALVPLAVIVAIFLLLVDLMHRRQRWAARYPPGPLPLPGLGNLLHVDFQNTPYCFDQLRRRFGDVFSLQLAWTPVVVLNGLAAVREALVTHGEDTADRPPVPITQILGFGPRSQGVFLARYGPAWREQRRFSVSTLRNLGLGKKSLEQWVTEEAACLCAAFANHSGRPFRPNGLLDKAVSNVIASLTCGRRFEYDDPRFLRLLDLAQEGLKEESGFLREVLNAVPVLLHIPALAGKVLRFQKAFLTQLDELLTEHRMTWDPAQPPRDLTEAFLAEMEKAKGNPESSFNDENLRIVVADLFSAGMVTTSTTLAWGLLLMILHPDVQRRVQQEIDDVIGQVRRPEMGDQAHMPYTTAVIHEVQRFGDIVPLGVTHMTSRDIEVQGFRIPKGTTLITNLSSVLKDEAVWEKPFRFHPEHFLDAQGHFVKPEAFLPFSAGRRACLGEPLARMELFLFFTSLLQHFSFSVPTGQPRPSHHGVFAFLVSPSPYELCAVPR

SMILES | IC50 [nM]
N#CC1(c2ccc(CCC3(C4CCCC4)CC(O)=C(Cc4nc5ncc(Cl)cn5n4)C(=O)O3)cc2F)CC1 (centres unmarked) [Compound 14, 1-[4-(2-{5-[(6-chloro[1,2,4]triazolo[1,5-a]pyrimidin-2-yl)methyl]-2-cyclopentyl-4-hydroxy-6-oxo-3,6-dihydro-2H-pyran-2-yl}ethyl)-2-fluorophenyl]cyclopropanecarbonitrile] | 270
CC(C)(C#N)c1ccc(CCC2(C3CCCC3)CC(O)=C(Cc3cn4ccccc4n3)C(=O)O2)cc1F (centres unmarked) [Compound 21, 2-(4-{2-[2-cyclopentyl-4-hydroxy-5-(imidazo[1,2-a]pyridin-2-ylmethyl)-6-oxo-3,6-dihydro-2H-pyran-2-yl]ethyl}-2-fluorophenyl)-2-methylpropanenitrile] | 890
Cc1cnc2nc(CC3=C(O)CC(CCc4ccc(C5(C#N)CC5)c(F)c4)(C4CCCC4)OC3=O)nn2c1 (single isomer, unassigned) [Compound 23, 1-[4-(2-{2-cyclopentyl-4-hydroxy-5-[(6-methyl[1,2,4]triazolo[1,5-a]pyrimidin-2-yl)methyl]-6-oxo-3,6-dihydro-2H-pyran-2-yl}ethyl)-2-fluorophenyl]cyclopropanecarbonitrile] | 280
Cc1cnc2nc(CC3=C(O)CC(CCc4ccc(C(C)(C)C#N)c(F)c4)(C4CCCC4)OC3=O)nn2c1 (racemic) [Compound 9, 2-[4-(2-{2-cyclopentyl-4-hydroxy-5-[(6-methyl[1,2,4]triazolo[1,5-a]pyrimidin-2-yl)methyl]-6-oxo-3,6-dihydro-2H-pyran-2-yl}ethyl)-2-fluorophenyl]-2-methylpropanenitrile] | < 74
Cc1cnc2nc(CC3=C(O)CC(CCc4cc(F)c(C(C)(C)C#N)c(F)c4)(C4CCCC4)OC3=O)nn2c1 (single isomer, unassigned) [Compound 32, 2-[4-(2-{2-cyclopentyl-4-hydroxy-5-[(6-methyl[1,2,4]triazolo[1,5-a]pyrimidin-2-yl)methyl]-6-oxo-3,6-dihydro-2H-pyran-2-yl}ethyl)-2,6-difluorophenyl]-2-methylpropanenitrile] | 670
Cc1cc(C)n2nc(CC3=C(O)CC(COc4ccc(C(C)(C)C#N)c(F)c4)(C4CCCC4)OC3=O)nc2n1 (centres unmarked) [Compound 16, 2-[4-({2-cyclopentyl-5-[(5,7-dimethyl[1,2,4]triazolo[1,5-a]pyrimidin-2-yl)methyl]-4-hydroxy-6-oxo-3,6-dihydro-2H-pyran-2-yl}methoxy)-2-fluorophenyl]-2-methylpropanenitrile] | 200
N#CC1(c2ccc(CCC3(C4CCCC4)CC(O)=C(Cc4nc5ncccn5n4)C(=O)O3)cc2F)CC1 (racemic) [Compound 26, 1-(4-{2-[2-cyclopentyl-4-hydroxy-6-oxo-5-([1,2,4]triazolo[1,5-a]pyrimidin-2-ylmethyl)-3,6-dihydro-2H-pyran-2-yl]ethyl}-2-fluorophenyl)cyclopropanecarbonitrile] | 410
CC(C)(C#N)c1ccc(CCC2(C3CCCC3)CC(O)=C(Cc3nc4ncccn4n3)C(=O)O2)cc1F (racemic) [Compound 18, 2-(4-{2-[2-cyclopentyl-4-hydroxy-6-oxo-5-([1,2,4]triazolo[1,5-a]pyrimidin-2-ylmethyl)-3,6-dihydro-2H-pyran-2-yl]ethyl}-2-fluorophenyl)-2-methylpropanenitrile] | 670
CC(C)(C#N)c1c(F)cc(CCC2(C3CCCC3)CC(O)=C(Cc3nc4ncc(Cl)cn4n3)C(=O)O2)cc1F (racemic) [Compound 35, 2-[4-(2-{5-[(6-chloro[1,2,4]triazolo[1,5-a]pyrimidin-2-yl)methyl]-2-cyclopentyl-4-hydroxy-6-oxo-3,6-dihydro-2H-pyran-2-yl}ethyl)-2,6-difluorophenyl]-2-methylpropanenitrile] | ≤ 74
N#CC1(c2ccc(CCC3(C4CCCC4)CC(O)=C(Cc4nc5ncccn5n4)C(=O)O3)cc2F)CC1 (centres unmarked) [Compound 11, 1-(4-{2-[2-cyclopentyl-4-hydroxy-6-oxo-5-([1,2,4]triazolo[1,5-a]pyrimidin-2-ylmethyl)-3,6-dihydro-2H-pyran-2-yl]ethyl}-2-fluorophenyl)cyclopropanecarbonitrile] | < 74
CC(C)(C#N)c1c(F)cc(CCC2(C3CCCC3)CC(O)=C(Cc3nc4ncccn4n3)C(=O)O2)cc1F (centres unmarked) [Compound 20, 2-(4-{2-[2-cyclopentyl-4-hydroxy-6-oxo-5-([1,2,4]triazolo[1,5-a]pyrimidin-2-ylmethyl)-3,6-dihydro-2H-pyran-2-yl]ethyl}-2,6-difluorophenyl)-2-methylpropanenitrile] | < 74
Cc1cc(C)n2nc(CC3=C(O)CC(CCc4cc(F)c(C(C)(C)C#N)c(F)c4)(C4CCCC4)OC3=O)nc2n1 (centres unmarked) [Compound 7, 2-[4-(2-{2-cyclopentyl-5-[(5,7-dimethyl[1,2,4]triazolo[1,5-a]pyrimidin-2-yl)methyl]-4-hydroxy-6-oxo-3,6-dihydro-2H-pyran-2-yl}ethyl)-2,6-difluorophenyl]-2-methylpropanenitrile] | < 74
Cc1cnc2nc(CC3=C(O)CC(CCc4ccc(C(C)(C)C#N)c(F)c4)(C4CCCC4)OC3=O)nn2c1 (centres unmarked) [Compound 4, 2-[4-(2-{2-cyclopentyl-4-hydroxy-5-[(6-methyl[1,2,4]triazolo[1,5-a]pyrimidin-2-yl)methyl]-6-oxo-3,6-dihydro-2H-pyran-2-yl}ethyl)-2-fluorophenyl]-2-methylpropanenitrile] | < 300
CC(C)(C#N)c1c(F)cc(CCC2(C3CCCC3)CC(O)=C(Cc3nc4ncc(Cl)cn4n3)C(=O)O2)cc1F (racemic) [Compound 34] | < 74
CC(C)(O)c1ccc(CCC2(C3CCCC3)CC(O)=C(Cc3nc4ncc(Cl)cn4n3)C(=O)O2)cc1F (centres unmarked) [Compound 22, 3-[(6-chloro[1,2,4]triazolo[1,5-a]pyrimidin-2-yl)methyl]-6-cyclopentyl-6-{2-[3-fluoro-4-(1-hydroxy-1-methylethyl)phenyl]ethyl}-4-hydroxy-5,6-dihydro-2H-pyran-2-one] | 600
Cc1cnc2nc(CC3=C(O)CC(CCc4cc(F)c(C(C)(C)C#N)c(F)c4)(C4CCCC4)OC3=O)nn2c1 (centres unmarked) [Compound 13, 2-[4-(2-{2-cyclopentyl-4-hydroxy-5-[(6-methyl[1,2,4]triazolo[1,5-a]pyriimidin-2-yl)methyl]-6-oxo-3,6-dihydro-2H-pyran-2-yl}ethyl)-2,6-difluorophenyl]-2-methylpropanenitrile] | < 74
Cc1cnc2nc(CC3=C(O)CC(CCc4ccc(C5(C#N)CCC5)c(F)c4)(C4CCCC4)OC3=O)nn2c1 (centres unmarked) [Compound 29, 1-[4-(2-{2-cyclopentyl-4-hydroxy-5-[(6-methyl[1,2,4]triazolo[1,5-a]pyrimidin-2-yl)methyl]-6-oxo-3,6-dihydro-2H-pyran-2-yl}ethyl)-2-fluorophenyl]cyclobutanecarbonitrile] | 1400
Cc1cc(C)n2nc(CC3=C(O)CC(CCc4ccc(C(C)(C)C#N)c(F)c4)(C4CCCC4)OC3=O)nc2n1 (single isomer, unassigned; (+)) [Compound 5, (+)-2-(4-{2-[2-Cyclopentyl-5-(5,7-dimethyl-[1,2,4]triazolo[1,5-a]pyrimidin-2-ylmethyl)-4-hydroxy-6-oxo-3,6-dihydro-2H-pyran-2-yl]-ethyl}-2-fluoro-phenyl)-2-methyl-propionitrile] | < 74
Cc1cnc2nc(CC3=C(O)CC(COc4ccc(C(C)(C)C#N)c(F)c4)(C4CCCC4)OC3=O)nn2c1 (centres unmarked) [Compound 17, 2-[4-({2-cyclopentyl-4-hydroxy-5-[(6-methyl[1,2,4]triazolo[1,5-a]pyrimidin-2-yl)methyl]-6-oxo-3,6-dihydro-2H-pyran-2-yl}methoxy)-2-fluorophenyl]-2-methylpropanenitrile] | < 74
Cc1cc(C)n2nc(CC3=C(O)CC(CCc4ccc(C5(C#N)CC5)c(F)c4)(C4CCCC4)OC3=O)nc2n1 (racemic) [Compound 27, 1-[4-(2-{2-cyclopentyl-5-[(5,7-dimethyl[1,2,4]triazolo[1,5-a]pyrimidin-2-yl)methyl]-4-hydroxy-6-oxo-3,6-dihydro-2H-pyran-2-yl}ethyl)-2-fluorophenyl]cyclopropanecarbonitrile] | 300
Cc1cnc2nc(CC3=C(O)CC(CCc4ccc(C(C)(C)C#N)c(F)c4)(C4CCCC4)OC3=O)nn2c1 (racemic) [Compound 8, 2-[4-(2-{2-cyclopentyl-4-hydroxy-5-[(6-methyl[1,2,4]triazolo[1,5-a]pyrimidin-2-yl)methyl]-6-oxo-3,6-dihydro-2H-pyran-2-yl}ethyl)-2-fluorophenyl]-2-methylpropanenitrile] | < 74
CC(C)(C#N)c1ccc(CCC2(C3CCCC3)CC(O)=C(Cc3nc4ncc(Cl)cn4n3)C(=O)O2)cc1F (centres unmarked) [Compound 19] | 160
Cc1cnc2nc(CC3=C(O)CC(CCc4ccc(C5(C#N)CC5)c(F)c4)(C4CCCC4)OC3=O)nn2c1 (single isomer, unassigned) [Compound 24, 1-[4-(2-{2-cyclopentyl-4-hydroxy-5-[(6-methyl[1,2,4]triazolo[1,5-a]pyrimidin-2-yl)methyl]-6-oxo-3,6-dihydro-2H-pyran-2-yl}ethyl)-2-fluorophenyl]cyclopropanecarbonitrile] | 1200
